Test results taken from publication PMC11738990, “A small-molecule TNIK inhibitor targets fibrosis in preclinical and clinical models” (Nature Biotechnology, 2024).
“And” between values parts separate entries of the source, which are not always exact repeats. Identical values can stand only once.

Tests used:
[1] = tested on: Sprague Dawley rats; experiment: Bleomycin-induced lung fibrosis model, inhalation administration; assay type: in vivo, rat; settings: individual animals, Fig 4
Protocol: On day 1 of the study, bleomycin hydrochloride was administered to 8–9-week-old Sprague Dawley rats at a final concentration of 1.5 mg ml^−1 in sodium chloride solution (dosed volume at 1.0 ml per kg) by intratracheal atomization (once in the morning and once in the afternoon) to build the pulmonary fibrosis model.
A German PARI compression atomizer (PARI TurboBOY) was set at an aerosol flow rate of 9–10 l min^−1. […] The dilution flow of aerosol was set at 0 l min^−1, and the pumping-out flow from the chamber was set at 6 l min^−1. The fluid rate was set at 0.5 ml min^−1 for test article replenishment. Before nebulization, aerosol-generation conditions were validated three times.
And these parameters were recorded in real time during the experiment.
For concentration assessment, a glass fiber filter membrane (φ = 37 mm) was used to measure aerosol concentrations during drug administration from approximately day 8 to day 28. Sampling was taken at 5 min (±1 min) after drug administration from a random exposure port. […] Aerosol particle size parameters were calculated with the system software: median mass aerodynamic diameter (MMAD), geometric standard deviation, fine particle fraction (percentage of fine particles with MMAD < 5 μm), etc.
On day 29 and before euthanasia, animals were anesthetized with chloral hydrate (90 mg ml^−1, 5 ml per kg, i.p.). Necks were cut longitudinally at the middle to isolate trachea, and a catheter was intubated into the trachea toward the tail direction and fixed with a suture thread. The anesthetized animals were placed into the plethysmography chamber, to which the airway was connected. The AniRes2005 animal lung function-analysis system was used to assess parameters including FVC, airway resistance and pulmonary compliance. The ventilator respiration rate was set to 65 beats per minute; the respiration ratio was set to 20:10; the negative pressure controller was set to 30 cm H2O. FVC detection was set to pressure-control mode, while pressure was set to 30 cm H2O. The startup mode was selected to automatically detect at the end of breath, and the ‘Start’ button was clicked to passively inhale and then turned to exhale after reaching the set pressure value. Next, the ‘Stop’ button was clicked to complete an FVC detection. Each animal was evaluated for FVC at least five times. The final result was the mean value after the maximum and minimum data were excluded for analysis.

[2] = tested on: CD-1 mice; settings: single IV; ref Insilico Medicine, 2021; cited from earlier work

Question: With `CC(C)n1cnc(-c2ccc(F)cc2)c1-c1nc(C(=O)Nc2ccc(N3CCN(C)CC3)cc2)c[nH]1` [INS018_055, 2-[4-(4-fluorophenyl)-1-(prop-2-yl)imidazol-5-yl]-N-[4-(4-methylhexahydropyrazin-1-yl)phenyl]-1H-imidazole-4-carboxamide] as the molecule, how does the Cdyn ([1]; INS018_055 0.1 mg/mL) read?
Answer: Its Cdyn is 0.2868 mL/cmH2O and 0.282 mL/cmH2O and 0.2528 mL/cmH2O and 0.2276 mL/cmH2O and 0.2464 mL/cmH2O and 0.2949 mL/cmH2O and 0.266 mL/cmH2O and 0.2918 mL/cmH2O and 0.3725 mL/cmH2O.

Question: And the FVC ([1]; INS018_055 0.1 mg/mL)?
Answer: The FVC was 11.667 and 10.372 and 9.331 and 9.408 and 9.013 and 11.225 and 10.246 and 9.406 and 11.458.

Question: What about the “MT staining for fibrosis” value ([1]; INS018_055 0.1 mg/mL) of the same molecule?
Answer: Its value is 39.4049 and 24.0295 and 21.4518 and 29.9242 and 25.5526 and 41.2629 and 23.5476 and 24.3272 and 18.8851.

Question: And the “Modified Ashcroft Score” value ([1]; INS018_055 0.1 mg/mL)?
Answer: The value was 3.58 and 3.5 and 3.67 and 4.67.

Question: And the RL ([1]; INS018_055 0.1 mg/mL)?
Answer: Its RL is 0.2183 cmH2O and 0.2228 cmH2O and 0.249 cmH2O and 0.2763 cmH2O and 0.2553 cmH2O and 0.2139 cmH2O and 0.2369 cmH2O and 0.215 cmH2O and 0.1673 cmH2O.

Question: What about the Cdyn ([1]; INS018_055 0.3 mg/mL) of the same molecule?
Answer: The Cdyn was 0.1877 mL/cmH2O and 0.26 mL/cmH2O and 0.28 mL/cmH2O and 0.2261 mL/cmH2O and 0.2364 mL/cmH2O and 0.2626 mL/cmH2O and 0.2848 mL/cmH2O and 0.214 mL/cmH2O and 0.2795 mL/cmH2O.

Question: What about the FVC ([1]; INS018_055 0.3 mg/mL) of the same molecule?
Answer: Its FVC is 8.356 and 10.531 and 9.955 and 8.979 and 9.285 and 9.684 and 11.437 and 8.52 and 10.758.

Question: And the “MT staining for fibrosis” value ([1]; INS018_055 0.3 mg/mL)?
Answer: The value was 37.0531 and 32.9417 and 33.2766 and 28.9122 and 24.8997 and 24.7844 and 23.0018 and 21.403 and 19.6831.

Question: What about the “Modified Ashcroft Score” value ([1]; INS018_055 0.3 mg/mL) of the same molecule?
Answer: Its value is 3.33 and 3.5 and 3.42 and 3.17 and 3.25.

Question: What about the RL ([1]; INS018_055 0.3 mg/mL) of the same molecule?
Answer: The RL was 0.334 cmH2O and 0.2417 cmH2O and 0.2246 cmH2O and 0.2783 cmH2O and 0.266 cmH2O and 0.2397 cmH2O and 0.2213 cmH2O and 0.2931 cmH2O and 0.2253 cmH2O.

Question: What about the Cdyn ([1]; INS018_055 1 mg/mL) of the same molecule?
Answer: Its Cdyn is 0.2887 mL/cmH2O and 0.2534 mL/cmH2O and 0.2831 mL/cmH2O and 0.2977 mL/cmH2O and 0.3373 mL/cmH2O and 0.3256 mL/cmH2O and 0.3052 mL/cmH2O and 0.2663 mL/cmH2O and 0.1759 mL/cmH2O.

Question: What about the FVC ([1]; INS018_055 1 mg/mL) of the same molecule?
Answer: The FVC was 11.605 and 10.16 and 11.107 and 11.731 and 11.449 and 11.248 and 11.212 and 9.823 and 10.688.

Question: And the “MT staining for fibrosis” value ([1]; INS018_055 1 mg/mL)?
Answer: The value was 13.0601 and 19.1932 and 11.5913 and 20.3302 and 12.2482 and 5.166 and 2.8883 and 26.6827 and 9.6738.

Question: And the “Modified Ashcroft Score” value ([1]; INS018_055 1 mg/mL)?
Answer: The value was 3.08 and 2.5 and 1.92 and 1.58.

Question: What about the RL ([1]; INS018_055 1 mg/mL) of the same molecule?
Answer: Its RL is 0.2246 cmH2O and 0.2544 cmH2O and 0.2308 cmH2O and 0.2117 cmH2O and 0.1856 cmH2O and 0.1933 cmH2O and 0.2063 cmH2O and 0.2431 cmH2O and 0.3604 cmH2O.

Question: What about the Cdyn ([1]; INS018_055 6 mg/mL) of the same molecule?
Answer: The Cdyn was 0.2872 mL/cmH2O and 0.2596 mL/cmH2O and 0.2974 mL/cmH2O and 0.09892 mL/cmH2O and 0.2655 mL/cmH2O and 0.2689 mL/cmH2O and 0.283 mL/cmH2O and 0.2425 mL/cmH2O and 0.303 mL/cmH2O.

Question: What about the FVC ([1]; INS018_055 6 mg/mL) of the same molecule?
Answer: The FVC was 10.938 and 9.019 and 10.156 and 12.074 and 10.094 and 10.135 and 10.127 and 8.751 and 10.893.

Question: And the “MT staining for fibrosis” value ([1]; INS018_055 6 mg/mL)?
Answer: The value was 11.7864 and 15.1925 and 36.9642 and 17.393 and 15.0833 and 12.2135 and 12.9504 and 11.5722 and 12.5986.

Question: And the “Modified Ashcroft Score” value ([1]; INS018_055 6 mg/mL)?
Answer: The value was 2.25 and 3.08 and 3.

Question: What about the RL ([1]; INS018_055 6 mg/mL) of the same molecule?
Answer: The RL was 0.2197 cmH2O and 0.2419 cmH2O and 0.2117 cmH2O and 0.6313 cmH2O and 0.2427 cmH2O and 0.2338 cmH2O and 0.2227 cmH2O and 0.2591 cmH2O and 0.2072 cmH2O.

Question: And the LOAEL [2]?
Answer: Its LOAEL is 10 mg/kg.
